{"source": "patent US20250011404A1", "about": "“TARGETING APOE ENHANCES T-CELL KILLING IN CANCER IMMUNOTHERAPY” (Children's National Medical Center, priority 2021, published 2025)", "tested_on": "mouse apoE gene", "assay": "gRNA screening by next generation sequencing for INDEL frequency in B16-F10 cells", "type": "cell-based", "conditions": "RNP electroporated into B16-F10 cells; NGS", "description": "Six guide RNAs (gRNAs) were designed using IDT's gRNA design tool, targeting the mouse apoE gene. gRNAs were synthesized as 2-part crRNA: tracrRNA gRNAs with chemical modifications (Integrated DNA Technologies, Inc., IA) and were functionally screened by next generation sequencing (NGS) for high INDEL (insertion/deletion) frequency and low in-frame INDEL rates. gRNAs were prepared by complexing a 1:1 molar ratio of the crRNA: tracrRNA at a final concentration of 100 μM, heating to 95° C. and slowly cooling to room temperature. […]\nThe electroporated cells were plated in 1 well of a 6-well plate and allowed to grow until confluent. The cells were then dissociated by trypsinization, resuspended in media, and counted. […] The genomic DNA from each well was subject to quantification of total editing and analysis of INDEL profile by NGS to confirm a monoclonal isolate.\nGenomic DNA libraries for sequencing were prepared using IDT rhAmpSeq targeted amplification. […] Libraries were purified using Agencourt® AMPure® XP system (Beckman Coulter, Brea, CA, USA) with a 1:1 ratio of beads to reaction by volume and quantified with quantitative real-time PCR (qPCR) before loading onto the Illumina® MiSeq platform (Illumina, San Diego, CA, USA). Paired end 150 base pair reads were sequenced using V2 chemistry. A sequencing depth of at least 1000 reads was obtained for each sample. […]"}
{"sequence": "GGACACTATGACGGAAGTAA (listed as DNA, chemistry not given here) [Mm. Cas9.APOE.1-E]", "values": [{"measurement": "INDEL frequency", "result": 99, "unit": "%"}, {"measurement": "in-frame INDELs", "result": "no"}]}
